Among the data in patent publication EP4596547A1, “HETEROCYCLIC COMPOUND AND HARMFUL ARTHROPOD-CONTROLLING COMPOSITION CONTAINING SAME” (priority 2022, dated 2024) are mortality values, retold here.

Where only a bound is given, the exact number is not on record here.

What all share (type): in vivo
Assay [1] relates to diamondback moth (Plutella xylostella). In words: Test method 4: sprayed cabbage foliage cut out, second instar larvae of diamondback moth released. The conditions noted are these: foliar, 120 h, sprayed 20 mL/seedling, five second instar larvae, after 5 days, 25°C. Here is the method:
A test compound is formed into a formulation according to the method described in Formulation Example 1, and water containing 0.03% by volume of Shindain (registered trademark) is added thereto to prepare a diluted solution containing the test compound at a predetermined concentration.
A cabbage (Brassicae oleracea) seedling (2 to 3 true leaf stage) planted in a container is sprayed with the diluted solution at a rate of 20 mL/seedling. Thereafter, the foliage portion of the seedling is cut out and placed in a container on which filter paper is laid. Thereto are released five second instar larvae of diamondback moth (Plutella xylostella). After 5 days, the number of surviving insects is counted, and the mortality is determined from the following equation. [formula]

Assay [2] has the same test system. Description: Test method 10: sprayed cabbage seedling, third instar larvae of diamondback moth released. The settings on record: 144 h, sprayed 20 mL/seedling, 10 third instar larvae, after 6 days, 25°C. Here is the method:
A test compound is formed into a formulation according to the method described in Formulation Example 5, and water containing 0.03% by volume of Shindain (registered trademark) is added thereto to prepare a diluted solution containing the test compound at a predetermined concentration.
A cabbage (Brassicae oleracea) seedling (3 to 4 true leaf stage) planted in a container is sprayed with the diluted solution at a rate of 20 mL/seedling. Thereafter, 10 third instar larvae of diamondback moth (Plutella xylostella) are released. After 6 days, the number of surviving insects is counted, and the mortality is determined from the following equation. [formula]

The next assay relates to Culex pipiens pallens. In words: Test method 12: last-instar larvae of Culex pipiens pallens released into diluted solution. The conditions noted are these: 24 h, 30 last-instar larvae, one day later, 25°C. On the procedure:
The test compound is formulated according to the method described in Formulation Example 1, and water is added thereto to prepare a diluted solution containing the test compound at a predetermined concentration. 30 last-instar larvae of Culex pipiens pallens are released into the diluted solution, and the state of the larvae of Culex pipiens is examined one day later to determine the Mortality. The mortality is calculated by the following equation. [formula]

Assay [3] deals with cotton aphids (Aphis gossypii). Description: Test method 11: foliar spray on cucumber seedlings inoculated with cotton aphids (formulation per Formulation Example 5). The settings on record: 120 h, sprayed 10 mL/seedling one day after inoculation, after 5 days, 25°C, read-out: control value.
Assay [4] has as its system cotton aphids (Aphis gossypii). Description: Test method 1: foliar spray on cucumber seedlings inoculated with cotton aphids (formulation per Formulation Example 1). Further details: mortality: concentration or dose not given beside the values. The settings on record: 120 h, sprayed 10 mL/seedling one day after inoculation, surviving insects examined after 5 days, 25°C, read-out: control value.

Another assay concerns Aphis gossypii. Description: Test method 2: soil irrigation of cucumber seedlings, later inoculated with Aphis gossypii. The conditions noted are these: 144 h, irrigated 5 mL/seedling, inoculated after 7 days, surviving insects examined after 6 days, 25°C, read-out: control value. On the procedure:
The test compound is formulated according to the method described in Formulation Example 5, and water is added thereto to prepare a diluted solution containing the test compound at a predetermined concentration. A cucumber (Cucumis sativus) seedling (second true leaf stage) planted in a container is irrigated with the diluted solution at a rate of 5 mL/seedling. After 7 days, the leaf surface of this seedling is inoculated with about 30 Aphis gossypii (whole stage). After 6 days, the number of surviving insects is examined, and the control value is determined by the following formula. [formula] • Characters in the formula represent the following meanings. • Cb: number of test insects in a non-treated section • Cai: number of surviving insects in a non-treated section at the time of investigation • Tb: number of test insects in a treated section • Tai: number of surviving insects in a treated section at the time of investigation Herein, the non-treated section means a section that is subjected to the same operation as that of the treated section except that the test compound is not used.

Regarding `CCSc1c(N(C)C(=O)c2cc(C(F)(F)F)nn2C)nc2ccc(I)cn12` [compound 3], the mortality at 500 ppm in assay [1] is at least 80%; in assay [4], at least 90%. Further, the mortality at 200 ppm in assay [2] is at least 80%; in assay [3], at least 90%. Moreover, the mortality at 3.5 ppm with Culex pipiens pallens is over 90%. In addition, the mortality at 50 ppm in assay [3] is at least 90%.

In the case of `CCSc1c(N(C)C(=O)c2ccc(C(F)(F)F)o2)nc2ccc(I)cn12` [compound 5], the mortality at 500 ppm in assay [1] was at least 80%. For the same compound, in the assay with Culex pipiens pallens, the mortality at 3.5 ppm was over 90%. In assay [3], the mortality at 50 ppm was at least 90% and the mortality at 200 ppm was at least 90%. The mortality at 500 ppm in assay [4] is at least 90%.

In the case of `CCSc1c(N(C)C(=O)c2cnc(C(F)(F)F)s2)nc2ccc(Br)cn12` [compound 8], in assay [1], the mortality at 500 ppm is at least 80%. Besides, in the assay with Culex pipiens pallens, the mortality at 3.5 ppm is over 90%. Moreover, in assay [3], the mortality at 50 ppm is at least 90% and the mortality at 200 ppm is at least 90%. In addition, the mortality at 500 ppm in assay [4] was at least 90%.

Regarding `CCSc1c(N(C)C(=O)c2cnc(C(F)(F)F)s2)nc2ccc(C(F)(F)F)cn12` [compound 9], in assay [1], the mortality at 500 ppm is at least 80%. Moreover, the mortality at 3.5 ppm with Culex pipiens pallens was over 90%. For the same compound, in assay [3], the mortality at 50 ppm was at least 90% and the mortality at 200 ppm is at least 90%. The mortality at 500 ppm in assay [4] was at least 90%.

Consider `CCSc1c(N(C)C(=O)c2cnc(C(F)(F)F)s2)nc2cc(I)ccn12` [compound 10], for which the mortality at 500 ppm in assay [1] is at least 80%; in assay [4], at least 90%. Also, the mortality at 200 ppm in assay [2] is at least 80%; in assay [3] it was at least 90%. For the same compound, the mortality at 3.5 ppm in the assay with Culex pipiens pallens was over 90%. Also, in assay [3], the mortality at 50 ppm was at least 90%.

For the compound `CCSc1c(N(C)C(=O)c2cnc(C(F)(F)F)s2)nc2cc(Br)ccn12` [compound 11], the mortality at 500 ppm in assay [1] was at least 80%. Also, in the assay on Culex pipiens pallens, the mortality at 3.5 ppm is over 90%. Besides, in assay [3], the mortality at 50 ppm is at least 90% and the mortality at 200 ppm is at least 90%. Also, the mortality at 1000 ppm in the assay with Aphis gossypii was at least 90%. Moreover, the mortality at 500 ppm in assay [4] is at least 90%.

Consider `CCSc1c(N(C)C(=O)c2nc(C(F)(F)F)cs2)nc2ccc(I)cn12` [compound 13], for which the results for the mortality at 500 ppm in assay [1] and in assay [4] were at least 80% and at least 90%, respectively. In addition, the mortality at 3.5 ppm with Culex pipiens pallens is over 90%. In addition, in assay [3], the mortality at 200 ppm was at least 90%.

On to `CCSc1c(N(C)C(=O)c2ccn(C(F)F)n2)nc2ccc(I)cn12` [compound 19], for which the mortality at 3.5 ppm in the assay on Culex pipiens pallens is over 90%. Also, in assay [3], the mortality at 50 ppm was at least 90% and the mortality at 200 ppm is at least 90%. Also, the mortality at 500 ppm in assay [4] was at least 90%.

With `CCSc1c(N(C)C(=O)c2cnn(C(F)F)c2)nc2ccc(I)cn12` [compound 24], the mortality at 500 ppm in assay [1] was at least 80%; in assay [4], at least 90%. Also, in the assay with Culex pipiens pallens, the mortality at 3.5 ppm was over 90%. In addition, the mortality at 200 ppm in assay [3] was at least 90%.

Turning to `CCSc1c(N(C)C(=O)c2cn(CC(F)(F)F)nn2)nc2ccc(I)cn12` [compound 27], the mortality at 200 ppm in assay [2] was at least 80%; in assay [3] it was at least 90%. The mortality at 3.5 ppm in the assay on Culex pipiens pallens is over 90%. Moreover, the mortality at 500 ppm in assay [4] is at least 90%.

Take `CCS(=O)(=O)c1c(N(C)C(=O)c2cc(C(F)(F)F)nn2C)nc2ccc(I)cn12` [compound 36]: the mortality at 50 ppm was at least 80% in assay [2] (50 ppm) and at least 90% in assay [3]. Moreover, the mortality at 200 ppm was at least 80% in assay [2] and at least 90% in assay [3].

Turning to `CCS(=O)(=O)c1c(N(C)C(=O)c2ccc(C(F)(F)F)o2)nc2ccc(I)cn12` [compound 39], in assay [1], the mortality at 500 ppm is at least 80%. In the assay with Culex pipiens pallens, the mortality at 3.5 ppm is over 90%. Besides, in assay [3], the mortality at 50 ppm is at least 90% and the mortality at 200 ppm was at least 90%. The mortality at 1000 ppm in the assay with Aphis gossypii is at least 90%. For the same compound, the mortality at 500 ppm in assay [4] was at least 90%.

With `CC[S+]([O-])c1c(N(C)C(=O)c2cnc(C(F)(F)F)s2)nc2ccc(Br)cn12` (centres unmarked) [compound 41], the mortality at 500 ppm was at least 80% in assay [1] and at least 90% in assay [4]. Besides, the mortality at 200 ppm in assay [2] is at least 80%; in assay [3], at least 90%. In assay [3], the mortality at 50 ppm is at least 90%. Moreover, in the assay on Aphis gossypii, the mortality at 1000 ppm was at least 90%.

As to `CC[S+]([O-])c1c(N(C)C(=O)c2cnc(C(F)(F)F)s2)nc2ccc(C(F)(F)F)cn12` (centres unmarked) [compound 43], the mortality at 500 ppm in assay [1] is at least 80%; in assay [4], at least 90%. Moreover, the mortality at 200 ppm in assay [2] is at least 80%; in assay [3], at least 90%. In assay [3], the mortality at 50 ppm was at least 90%. Also, the mortality at 1000 ppm in the assay on Aphis gossypii was at least 90%.

Turning to `CCS(=O)(=O)c1c(N(C)C(=O)c2cnc(C(F)(F)F)s2)nc2cc(I)ccn12` [compound 46], the mortality at 500 ppm in assay [1] was at least 80%. Besides, in the assay on Culex pipiens pallens, the mortality at 3.5 ppm is over 90%. In assay [3], the mortality at 50 ppm is at least 90% and the mortality at 200 ppm is at least 90%. The mortality at 1000 ppm in the assay on Aphis gossypii is at least 90%. Besides, in assay [4], the mortality is at least 90%.

Turning to `CC[S+]([O-])c1c(N(C)C(=O)c2cnc(C(F)(F)F)s2)nc2cc(Br)ccn12` (centres unmarked) [compound 47], the figures for the mortality at 500 ppm in assay [1] and in assay [4] were at least 80% and at least 90%, respectively. Besides, the mortality at 200 ppm is at least 80% in assay [2] and at least 90% in assay [3]. For the same compound, the mortality at 50 ppm in assay [3] was at least 90%. The mortality at 1000 ppm in the assay with Aphis gossypii is at least 90%.

Take `CCS(=O)(=O)c1c(N(C)C(=O)c2nc(C(F)(F)F)cs2)nc2ccc(I)cn12` [compound 50]: in assay [1], the mortality at 500 ppm is at least 80%.

In the case of `CCS(=O)(=O)c1c(N(C)C(=O)c2cc(Br)n(C)n2)nc2ccc(I)cn12` [compound 53], the mortality at 500 ppm in assay [1] is at least 80%; in assay [4], at least 90%. In addition, the mortality at 50 ppm in assay [3] was at least 90%. Moreover, the mortality at 200 ppm in assay [3] was at least 90%.

On to `CCS(=O)(=O)c1c(N(C)C(=O)c2cc(OC(F)F)n(C)n2)nc2ccc(I)cn12` [compound 55], for which the mortality at 3.5 ppm with Culex pipiens pallens was over 90%.

Take `CCS(=O)(=O)c1c(N(C)C(=O)c2ccn(C3CC3)n2)nc2ccc(I)cn12` [compound 57]: the mortality at 500 ppm is at least 80% in assay [1] and at least 90% in assay [4]. For the same compound, in the assay on Culex pipiens pallens, the mortality at 3.5 ppm was over 90%. Moreover, in assay [3], the mortality at 200 ppm is at least 90%.

Regarding `CC[S+]([O-])c1c(N(C)C(=O)c2cnn(C(F)(F)F)c2)nc2ccc(I)cn12` (centres unmarked) [compound 60], the mortality at 500 ppm is at least 80% in assay [1] and at least 90% in assay [4].

Take `CCS(=O)(=O)c1c(N(C)C(=O)c2cnn(C(F)(F)F)c2)nc2ccc(I)cn12` [compound 61]: the mortality at 500 ppm in assay [1] was at least 80%; in assay [4] it was at least 90%.

On to `CCS(=O)(=O)c1c(N(C)C(=O)c2cnn(C(F)F)c2)nc2ccc(I)cn12` [compound 63], for which the mortality at 500 ppm was at least 80% in assay [1] and at least 90% in assay [4].

Take `CCS(=O)(=O)c1c(N(C)C(=O)c2cnn(C3CC3)c2)nc2ccc(I)cn12` [compound 64]: the mortality at 500 ppm in assay [1] is at least 80%; in assay [4], at least 90%. Further, the mortality at 1000 ppm in the assay with Aphis gossypii is at least 90%.

Take `CCS(=O)(=O)c1c(N(C)C(=O)c2cn(CC(F)(F)F)nn2)nc2ccc(I)cn12` [compound 67]: the mortality at 3.5 ppm in the assay with Culex pipiens pallens is over 90%. Besides, in assay [3], the mortality at 50 ppm is at least 90% and the mortality at 200 ppm was at least 90%. The mortality at 1000 ppm with Aphis gossypii was at least 90%. Moreover, the mortality at 500 ppm in assay [4] is at least 90%.
